Measurements as given in patent publication US20110119780A1, “SCREENING FOR NON-GENOTOXIC CARCINOGENS” (priority 2008, published 2011).
Where “and” joins values, the source holds several entries; their conditions need not be identical. Equal values may be shown once.

What was measured:
[1] = test system: hepatocellular hypertrophy; experiment: H&E staining of liver sections, Chlordane-treated mice; type: in vivo
Text: A 20× objective lens was used to capture the images.

[2] = test system: hepatocellular hypertrophy; experiment: H&E analysis of liver sections, PB; type: in vivo, mice; conditions: 80 mg/kg IP x4 days
Text: Portal vein (P) and central vein (C) are labelled. A 20× objective lens was used to capture the images.
Two samples of the liver (one from the lobe, one from the median lobe) and one sample of the small intestine were taken and preserved in 4% neutral buffered formaldehyde (NBF). The preserved liver samples of all mice of all groups were trimmed, processed and embedded in paraffin. The paraffin-embedded samples were sent to Progenix, Inverkeithing, UK where they were sectioned at a nominal thickness of about 5 æm and then stained with haematoxylin and eosin (H&E). One section of each organ sample was examined by Dr. Ortwin Vogel, Consultant Pathologist, Kiel, Germany. Subsequent to his histopatholoical analysis of all H&E stained mouse livers and small intestines, Dr. Vogel reported the following finding;

Cyp2b10 and Cyp3a11 = Cyp2b10 and Cyp3a11 protein in pooled liver microsomes by Western blotting, PB; type: in vivo, mouse
Protocol: Liver microsomes (0.3 ug) from each animal were pooled (n=9/10) for wild type, huPXR/huCAR and PXRKO/CARKO mice and characterised for Cyp2b10 and Cyp3a11 by immunoblotting using rabbit polyclonal CH4 (1:2000 dilution) and CH32 antibodies (1:2000 dilution), respectively (C. Henderson, University of Dundee, UK); +ve, control was either purified recombinant his-tagged Cyp3a11 membranes (0.1 pmol/u.l) or purified recombinant his-tagged Cyp2b10 membranes (O.Olpmol/u.l). Blots were developed using ECL and exposed for 30 secs.

Cyp1a1/1a2 = experiment: Hepatic P450 induction: MROD and EROD in liver microsomes; conditions: 80 mg/kg IP x4 days
Protocol: (§1) Each assay was performed on individual liver microsomes. Values are expressed as Mean±SD (n=9/10).
P450 catalytic activities in the liver microsomal fractions were quantified. For the quantification of mouse Cyp2b10 and Cyp3a11 activities, the dealkylation of pentoxyresofurin (PROD) and the debenzylation of benzyloxyquinoline (BQ) activities, respectively. In addition, […] (BROD), methoxyresorufin-O-demethylase (MROD) and 7-ethoxyresorufin-)-deethylase (EROD) activities were also measured and evaluated (see FIG. 11).
EROD activity is indicative of Cyp1a1/1a2 and Cyp1b1 in the mouse, whereas MROD is a substrate for Cyp1a2. However, other isoforms may be contributing to the measured activities.

[3] = test system: hepatocellular proliferation; experiment: Hepatic cell proliferation, BrdU incorporation (S-phase labelling index); conditions: for % mean (S-phase labelling index relative to control of the same mouse line = 100) / % BrDu positive Cells, Mean / % BrDu positive Cells (hepatic S-phase labelling index), individual mouse: PB-treated; for % BrDu positive Cells, Mean: group mean; for % BrDu positive Cells (hepatic S-phase labelling index), individual mouse: individual animals
Protocol: Osmotic pumps containing BrdU (15 mg/ml/PBS) were implanted into WT, huPXR/huCAR and PXRKO/CARKO mice prior to PB treatment (80 mg/kg/4 days/IP). Livers sections were labelled using a Brdu antibody (Dako). All microscopic images were captured at a magnification of 40×. Data represents random sampling of 10 images per lobes (2) counting approximately 180,000 cells/animal group, as according to Pat-0013-0014. Values are expressed as Mean±SD, n=9-10 for control mice, n=8-9 for PB-treated mice.
(§2) The study consisted of 6 groups with 10 WT mice per group, 9-10 PXRKO/CARKO mice per group and 9 huPXR/huCAR mice per group (Table 19). […] On Day 1 all animals were dosed with either 80 mg/kg PB/saline or saline alone by intraperitoneal injection for 4 days as detailed in Table 19.
All mouse liver and duodenum sections were analysed for BrdU incorporation as a measure of cell proliferation. The method used was an indirect BrdU labelling assay.

Cyp3a11 = experiment: Hepatic P450 induction: benzyloxyquinoline debenzylation (BQ) in liver microsomes; type: in vivo, mouse; conditions: 80 mg/kg IP x4 days
Protocol: as §1

Cyp3a11 and Cyp2b10 = experiment: Inductive effect of Phenobarbital in a panel of PXR/CAR knockout and humanised mice
[4] = PXR/CAR-dependent hepatomegaly by PB (body, liver weights); conditions: 80 mg/kg IP x4 days; for Body weight - Day 1 / Body weight - Day 5 / Liver weight / Liver/Body weight Ratio: Mean ± SD
Text: In order to assess whether humanised PXR/CAR mice mimic the response to PB in humans, the huPXR/huCAR and PXRKO/CARKO mouse models were used. The mutant mouse strains were obtained from Artemis. The WT mouse strain C57BL/6J was obtained from Harlan (UK). All animals were between 10 and 16 weeks of age.The following parameters were studied: • Liver/body weight ratios • BrdU incorporation analysed as a measure of cell proliferation • Haematoxylin and eosin (H&E) liver histopathology • Expression and activity of P450s by SDS-PAGE and Western blotting in liver microsomes • Apoptotic indices as analysed by TUNEL assay in the liver
as §2
Following treatment with PB or the vehicle, the mice were sacrificed and their livers were removed and weighed.

Cyp2b10 = experiment: Hepatic P450 induction: PROD and BROD in liver microsomes; type: in vivo, mouse; conditions: 80 mg/kg IP x4 days
Protocol: as §1
BROD and PROD are markers of Cyp2b10 activity in the mouse. […] However, PROD or BROD activities were not altered in the PXRKO/CARKO mice upon exposure to PB. Overall, PB induced P450 catalytic activities in the WT and huPXR/huCAR mouse lines, but not in the animals which were devoid of these receptors.

hepatocellular apoptosis = experiment: Liver in situ cell death, TUNEL labelling assay (apoptotic indices); type: in vivo; conditions: WT, huPXR/huCAR and PXRKO/CARKO mice; Student's t-test
Text: Livers sections were labelled using a TUNEL in situ cell detection kit (Roche). […] Data represents random sampling of 20 images per lobes (2) counting approximately 380,000 cells/animal group.
However, no such consistency has been observed in mice. An indirect TUNEL labelling assay was used to analyse hepatic in situ death (FIG. 9/Table 21). The present study has shown a marker variation in apoptotic indices in mouse liver. Thus, small (e.g. 50%) compound-induced decreases, upon a low background, were not readily demonstrable.

[5] = Pentobarbitone sleeping test; type: in vivo, mice; conditions: male, single intraperitoneal dose 25 mg/kg
Protocol: In this experiment, the activity of these transcription factors in combination was determined by measuring the barbiturate induced sleeping time. Sleeping time has been known for many years to be directly proportional to the hepatic cytochrome P450 activity and this activity can be at least in part ascribed to the P450 levels in the liver determined by CAR and PXR function.
Mice were given a single intraperitoneal dose of Narcoren (sodium pentobarbitone; purchased via a Veterinary Consultant; distributed by Merial GmbH, Germany) at 25 mg/kg of body weight. The time taken for the mice to lose, and subsequently to regain, their righting reflex was measured.

Structure (SMILES): ClC1=C(Cl)C2(Cl)C3C(Cl)C(Cl)CC3C1(Cl)C2(Cl)Cl (centres unmarked) [Chlordane]
- hypertrophy on H&E staining ([1]; PXRKO/CARKO mice): not
- liver finding on H&E staining ([1]; WT and hPXR_old/hCAR mice): hypertrophy

Structure (SMILES): CCC1(c2ccccc2)C(=O)NC(=O)NC1=O [PB, Phenobarbital]
- hepatocellular hypertrophy (H&E) ([2]; PXRKO/CARKO mice): no unequivocal evidence
- liver growth response (hypertrophy, hyperplasia), conclusion ([2]; PXRKO/CARKO mice): did not induce hepatomegaly
- liver growth response (hypertrophy, hyperplasia), conclusion ([2]; WT mice): induced hypertrophy and hyperplasia
- centrilobular hepatocellular hypertrophy (H&E) ([2]; huPXR/huCAR and WT animals): slight to moderate
- liver growth response (hypertrophy, hyperplasia), conclusion ([2]; huPXR/huCAR mice): induced hypertrophy but not hyperplasia
- Cyp2b10 and Cyp3a11 protein induced (Western blotting) (Cyp2b10 and Cyp3a11; PXRKO/CARKO animals): not
- Cyp2b10 and Cyp3a11 protein (Western blotting) (Cyp2b10 and Cyp3a11; WT and humanised mouse lines): induced
- MROD and EROD enzyme activities (Cyp1a1/1a2; PXRKO/CARKO line): no increase
- MROD and EROD enzyme activities (Cyp1a1/1a2; WT and huPXR/huCAR mice): increased
- % mean (S-phase labelling index relative to control of the same mouse line = 100) ([3]; PXRKO/CARKO mice): 144%
- % BrDu positive Cells, Mean ([3]; PXRKO/CARKO mice): 2.83%
- % BrDu positive Cells (hepatic S-phase labelling index), individual mouse ([3]; PXRKO/CARKO mice): 2.16% and 1.98% and 1.82% and 2.30% and 3.77% and 5.10% and 3.71% and 1.88% and 3.06% and 2.51%
- % mean (S-phase labelling index relative to control of the same mouse line = 100) ([3]; WT mice): 531%
- % BrDu positive Cells, Mean ([3]; WT mice): 9.30%
- % BrDu positive Cells (hepatic S-phase labelling index), individual mouse ([3]; WT mice): 9.45% and 5.54% and 16.69% and 6.32% and 9.50% and 8.09% and 7.64% and 13.60%
- hepatocellular labelling index (S-phase), increase ([3]; WT mice, 80 mg/kg IP x4 days, BrdU): approximately 5 fold
- % mean (S-phase labelling index relative to control of the same mouse line = 100) ([3]; huPXR/huCAR mice): 104%
- % BrDu positive Cells, Mean ([3]; huPXR/huCAR mice): 2.00%
- % BrDu positive Cells (hepatic S-phase labelling index), individual mouse ([3]; huPXR/huCAR mice): 0.37% and 0.-18% and 1.19% and 1.86% and 3.GO and 1.98% and 3.18% and 3.24% and 2.13%
- effect on cell proliferation (BrdU labelling) ([3]; huPXR/huCAR or PXRKO/CARKO mice, 80 mg/kg IP x4 days): no effect
- Cyp3a11 induction (BQ activity) (Cyp3a11; PXRKO/CARKO mice): absence of Cyp3a11 induction
- BQ activity (Cyp3a11; WT animals, liver microsomes): marginal increase
- BQ activity, increase (Cyp3a11; huPXR/huCAR mice, liver microsomes): 5 fold
- activation of Cyp3a11 and Cyp2b10 in vivo (Cyp3a11 and Cyp2b10): predominantly CAR-dependent
- Body weight - Day 1, % mean own control ([4]; PXRKO/CARKO mice): (100 ± 8) %
- Body weight - Day 5, % mean own control ([4]; PXRKO/CARKO mice): (98 ± 8) %
- Liver weight, % mean own control ([4]; PXRKO/CARKO mice): (98 ± 16) %
- Liver/Body weight Ratio, % mean own control ([4]; PXRKO/CARKO mice): (100 ± 9) %
- Body weight - Day 1 ([4]; PXRKO/CARKO mice): 27.2 ± 2.2 g
- Body weight - Day 5 ([4]; PXRKO/CARKO mice): 26.6 ± 2.2 g
- Liver weight ([4]; PXRKO/CARKO mice): 1.42 ± 0.23 g
- Liver/Body weight Ratio ([4]; PXRKO/CARKO mice): 5.3 ± 0.4
- Body weight - Day 1, % mean own control ([4]; WT mice): (106 + 6) %
- Body weight - Day 5, % mean own control ([4]; WT mice): (84 ± 5) %
- Liver weight, % mean own control ([4]; WT mice): (101 ± 6) %
- Body weight - Day 1 ([4]; WT mice): 26.4 ± 1.8 g
- Body weight - Day 5 ([4]; WT mice): 23.2 ± 1.3 g
- Liver weight ([4]; WT mice): 1.44 ± 0.09 g
- Liver/Body weight Ratio ([4]; WT mice): 6.2 ± 0.2
- Body weight - Day 1, % mean own control ([4]; huPXR/huCAR mice): (104 ± 5) %
- Body weight - Day 5, % mean own control ([4]; huPXR/huCAR mice): (99 ± 6) %
- Liver weight, % mean own control ([4]; huPXR/huCAR mice): (121 ± 11) %
- Body weight - Day 1 ([4]; huPXR/huCAR mice): 26.3 ± 1.2 g
- Body weight - Day 5 ([4]; huPXR/huCAR mice): 25.4 ± 1.5 g
- Liver weight ([4]; huPXR/huCAR mice): 1.69 ± 0.16 g
- Liver/Body weight Ratio ([4]; huPXR/huCAR mice): 6.7 ± 0.6
- PROD or BROD activities (Cyp2b10; PXRKO/CARKO mice): not altered
- Cyp2b10 induction (BROD and PROD activities) (Cyp2b10; WT and huPXR/huCAR mouse lines, at similar levels): marker Cyp2b10 induction was observed
- Hepatic apoptotic indices (TUNEL), PB-treated vs control (hepatocellular apoptosis): no statistical significance found

Structure (SMILES): CCCC(C)C1(CC)C(=O)NC(=O)NC1=O (centres unmarked) [pentobarbitone, sodium pentobarbitone]
- Sleeping time ([5]; PXR/CAR hum (double humanised) mouse): 34 min
- Sleeping time ([5]; Wt mouse): 21 min
